Measurements from the supplement of paper PMC10307832.

What follows are cell lines tested with C[C@@H](Oc1cc(-c2cnn(C3CCNCC3)c2)cnc1N)c1c(Cl)ccc(F)c1Cl [Crizotinib] + COc1cccc2cc(-c3nc([C@H]4CC[C@H](C(=O)O)CC4)n4ncnc(N)c34)[nH]c12 [OSI-027] (partner 0.5 µM) (assay: relative viability (nuclei count vs DMSO), 5 days (fraction); higher = more cells survive). Settings: first compound 1 µM.
Method in brief: (§1)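 Cells from lung cancer lines were seeded into 1536-well plates and, one day later, dosed by pin tool. Treatments were either a single drug or a fixed dose of an anchor drug with five library-drug doses (not always all listed) in √10 steps. After 5 days, nuclei were stained in a one-step fixation (final 0.05% Triton X-100, 1% formaldehyde, 1 ug/ml Hoechst) and counted on 4× images, and relative viability is the treated-to-vehicle nuclei ratio, as the median of duplicate plates.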

Cell Line | relative viability
NCI-H2347 | 0.414
NCI-H2405 | 0.593
NCI-H3122 | 0.16
PC-3 [JPC-3] | 0.745
PC-14 | 1.03
RERF-LC-KJ | 0.612

Each cell line was assayed with O=C(c1cc(Cc2n[nH]c(=O)c3ccccc23)ccc1F)N1CCN(C(=O)C2CC2)CC1 [Olaparib] + CS(=O)(=O)CCNCc1ccc(-c2ccc3ncnc(Nc4ccc(OCc5cccc(F)c5)c(Cl)c4)c3c2)o1 [Lapatinib] (partner 2 µM) in the same assay as above. Settings: first compound 0.08 µM.
Method in brief: as §1

Cell Line | relative viability
NCI-H358 | 0.388
NCI-H460 | 1.28
NCI-H520 | 1.08
NCI-H596 | 1.09
NCI-H647 | 1.43
NCI-H650 | 1.05
NCI-H661 | 0.638
NCI-H727 | 0.945
NCI-H838 | 0.94
NCI-H1355 | 1.13
NCI-H1395 | 0.98
NCI-H1437 | 0.801
NCI-H1650 | 1.04
NCI-H1651 | 0.712
NCI-H1666 | 0.845
NCI-H1734 | 1.1
NCI-H1755 | 1.15

Cell Line | relative viability
NCI-H1915 | 1.05
NCI-H1944 | 0.781
NCI-H1975 | 0.999
NCI-H1993 | 0.932
NCI-H2009 | 0.934
NCI-H2023 | 1.08
NCI-H2085 | 0.968
NCI-H2087 | 1.08
NCI-H2126 | 0.845
NCI-H2170 | 0.29
NCI-H2228 | 1.28
NCI-H2347 | 0.972
NCI-H2405 | 1.41
NCI-H3122 | 1.02
PC-3 [JPC-3] | 0.558
PC-14 | 0.368
RERF-LC-KJ | 0.872

Same assay, conditions: first compound 0.253 µM

Cell Line | relative viability
NCI-H358 | 0.434
NCI-H460 | 0.874
NCI-H520 | 0.795
NCI-H596 | 0.988
NCI-H647 | 0.984
NCI-H650 | 0.834
NCI-H661 | 0.443
NCI-H727 | 0.778
NCI-H838 | 0.857
NCI-H1355 | 0.863
NCI-H1395 | 0.661
NCI-H1437 | 0.652
NCI-H1650 | 0.756
NCI-H1651 | 0.752
NCI-H1666 | 0.633
NCI-H1734 | 0.974
NCI-H1755 | 0.916

Cell Line | relative viability
NCI-H1915 | 0.813
NCI-H1944 | 0.663
NCI-H1975 | 0.844
NCI-H1993 | 0.779
NCI-H2009 | 0.975
NCI-H2023 | 0.755
NCI-H2085 | 0.711
NCI-H2087 | 0.997
NCI-H2126 | 0.766
NCI-H2170 | 0.259
NCI-H2228 | 0.879
NCI-H2347 | 0.949
NCI-H2405 | 1.06
NCI-H3122 | 0.934
PC-3 [JPC-3] | 0.417
PC-14 | 0.319
RERF-LC-KJ | 0.831

Same assay, conditions: first compound 2.53 µM

Cell Line | relative viability
NCI-H358 | 0.44
NCI-H460 | 0.679
NCI-H520 | 0.725
NCI-H596 | 1.06
NCI-H647 | 1.13
NCI-H650 | 0.903
NCI-H661 | 0.426
NCI-H727 | 0.651
NCI-H838 | 0.887
NCI-H1355 | 1
NCI-H1395 | 0.839
NCI-H1437 | 0.717
NCI-H1650 | 0.796
NCI-H1651 | 0.628
NCI-H1666 | 0.577
NCI-H1734 | 0.933
NCI-H1755 | 1.08

Cell Line | relative viability
NCI-H1915 | 0.778
NCI-H1944 | 0.668
NCI-H1975 | 0.808
NCI-H1993 | 0.855
NCI-H2009 | 0.884
NCI-H2023 | 0.763
NCI-H2085 | 0.737
NCI-H2087 | 0.892
NCI-H2126 | 0.759
NCI-H2170 | 0.269
NCI-H2228 | 0.835
NCI-H2347 | 0.957
NCI-H2405 | 0.924
NCI-H3122 | 0.936
PC-3 [JPC-3] | 0.429
PC-14 | 0.298
RERF-LC-KJ | 0.971

Same assay, conditions: first compound 8 µM

Cell Line | relative viability
NCI-H358 | 0.426
NCI-H460 | 0.172
NCI-H520 | 0.525
NCI-H596 | 0.73
NCI-H647 | 0.59
NCI-H650 | 0.742
NCI-H661 | 0.543
NCI-H727 | 0.465
NCI-H838 | 1.09
NCI-H1355 | 0.944
NCI-H1395 | 0.435
NCI-H1437 | 0.599
NCI-H1650 | 0.749
NCI-H1651 | 0.27
NCI-H1666 | 0.532
NCI-H1734 | 0.749
NCI-H1755 | 0.967

Cell Line | relative viability
NCI-H1915 | 0.76
NCI-H1944 | 0.627
NCI-H1975 | 0.786
NCI-H1993 | 0.77
NCI-H2009 | 0.606
NCI-H2023 | 0.691
NCI-H2085 | 0.618
NCI-H2087 | 0.632
NCI-H2126 | 0.784
NCI-H2170 | 0.279
NCI-H2228 | 0.765
NCI-H2347 | 0.767
NCI-H2405 | 0.972
NCI-H3122 | 0.946
PC-3 [JPC-3] | 0.463
PC-14 | 0.307
RERF-LC-KJ | 0.872

The cell lines below were run with C[C@@H](Oc1cc(-c2cnn(C3CCNCC3)c2)cnc1N)c1c(Cl)ccc(F)c1Cl [Crizotinib] + CCNC(=O)c1noc(-c2cc(C(C)C)c(O)cc2O)c1-c1ccc(CN2CCOCC2)cc1 [Luminespib] (partner 0.01 µM) in the same assay as above. Settings: first compound 0.01 µM.
Method in brief: as §1

Cell Line | relative viability
NCI-H358 | 0.464
NCI-H460 | 0.0237
NCI-H520 | 0.212
NCI-H596 | 0.86
NCI-H647 | 0.2
NCI-H650 | 0.726
NCI-H661 | 0.832
NCI-H838 | 0.289
NCI-H1355 | 0.709
NCI-H1395 | 0.632
NCI-H1437 | 1.06
NCI-H1650 | 0.165
NCI-H1651 | 0.793
NCI-H1666 | 0.864
NCI-H1734 | 0.213
